Measured values taken from article PMC4026528 (PLoS ONE, 2014).

How the values were obtained:
[1] = test system: HUVEC cells; assay: Tube formation assay, HUVEC; type: cell-based; settings: data not shown
Method: (§1) Soft agar assay and analysis was carried out as previously described. For scratch assay, confluent monolayer of U2OS and HT-1080 cells were subjected to scratch using a sterile pipette tip. Wounded monolayers were washed to remove debris and incubated with SEN461 at different concentrations for 20 hours. After the incubation period, images were taken under an Axiovert 200M (Zeiss) microscope equipped with a CCD camera, and the gap width was measured using MetaMorph 6.3 software (Universal Imaging Corp.) to calculate the area covered by cells (pixels unit). The tube formation assay was performed using growth factor-reduced Matrigel from BD (BD Biosciences; San Jose, CA, USA). Matrigel was thawed overnight at 4°C and was diluted (1∶1) with phenol red-free DMEM without serum. 100 µl of the diluted matrigel was used to coat the wells of a 96 well plate and was allowed to polymerize for 2 hours at 37°C. After equilibrating the gel with the complete growth medium, 15×10^3 cells were seeded in each well and incubated for 20 hours. The tube formation was monitored under a phase contrast microscope (Axiovert 200, Zeiss) and imaged using MetaMorph system (Universal Imaging Corp).

[2] = test system: Wnt target gene mRNA in U2OS cells; assay: Quantitative RT-PCR of Wnt target genes in U2OS; type: cell-based, human
Method: RNA extraction and quantitative RT-PCR (qPCR) expression analysis was performed as described previously. Gene expression analysis was performed using the human housekeeping gene RPL13A. Primers for the hAXIN2, hCDC25A, hc-MYC, hFZD4, hDVL2, hCSNK1G and hVEGF-A were the following: Fw: 5′-CAAGGGCCAGGTCACCAA-3′ Rv: 5′-CCCCCAACCCATCTTCGT-3′; Fw: 5′-[…]-3′ Rv: 5′-[…]-3′; Fw: 5′-GGCTCCTGGCAAAAGGTCA-3′ Rv: 5′-[…]-3′; Fw: 5′-[…]-3′ Rv: 5′-[…]-3′; Fw: 5′-[…]-3′ Rv: 5′-GTCTCCCCGCTCATTGCTC-3′; Fw: 5′-[…]-3′ Rv: 5′-[…]-3′; Fw: 5′-[…]-3′ Rv: 5′-[…]-3′.

[3] = test system: U2OS cells; assay: Scratch assay (motility), U2OS; type: cell-based, human; settings: 20 hours
Method: as §1

[4] = test system: Axin1 and β-catenin in 143B osteosarcoma cells; assay: Western blotting in 143B; type: cell-based, human
[5] = test system: HT-1080 (fibrosarcoma) cells; assay: Soft agar assay (anchorage-independent growth), HT-1080; type: cell-based, human
Method: as §1

[6] = test system: HT-1080 xenograft tumor; assay: HT-1080 xenograft tumor growth; type: in vivo, female Crl:CD-1 nude mice; settings: 30 mg/kg twice a day PO, seven days
Method: (§2) Female athymic nude mice (6 weeks old, Crl:CD-1 nude mice) were obtained from Charles River Italia (Calco, Italy). HT-1080 cells (6×10^∧6 cells) were resuspended in 200 µl of PBS 1X and injected subcutaneously in the right flank of the mice. Body weight and tumor measurements (using a digital caliper) were performed twice a week. Randomization was performed on day 12 after cell injection by comparing tumor mass and treatments started on day 13 when tumors reached a median size of 246 mm^3 (range = 230–268 mm^3). SEN461 was formulated in 0.5% w/v Methocel in MilliQ water and administered PO by oral gavage twice a day at 30 mg/kg for seven consecutive days in a total of 15 animals (n = 5 for each time point). Control animals (n = 5) were administered with the vehicle for the same time period. On treatment day 19, the mice were euthanized under inhalant anesthesia with isoflurane and tumor and blood samples were collected at three different time points (1–4–8 h, n = 5 animals for each time point) after last treatment and subjected to gene expression analysis and compound quantification. All mice were maintained in a conventional-specific-pathogen-free facility according to the NIH guidelines using an approved Animal Care and Use Committee protocol. […]

[7] = test system: Axin1 and β-catenin in G292 osteosarcoma cells; assay: Western blotting in G292; type: cell-based, human
[8] = Body weight and intestinal histology of treated mice; type: in vivo, female Crl:CD-1 nude mice; settings: 30 mg/kg twice a day for seven days
Method: as §2

[9] = test system: Axin1, TNKS1/2, c-Myc protein in U2OS cells
Method: Total, nuclear and cytosolic cells lysates were prepared as described previously. Commercial antibodies used in this study include anti-Axin1, anti-β-catenin, anti-P-β−catenin Ser33/Ser37/Thr41 and anti-HA from Cell Signaling Technologies, anti-p21 (Santa Cruz), anti-tankyrases (Abcam), anti-Tubulin and anti-c-Myc from Calbiochem, anti-GAPDH and anti-β-actin (Sigma). For co-localization experiments, U2OS cells were plated directly on coverslips coated with Fibronectin (Invitrogen). After transfections and incubation treatment of 24 h, cells were washed once with 1X PBS and then fixed with 4% paraformaldehyde for 15 min. After three washes in PBS, cells were permeabilized with 0.1% Triton X-100 for 10 min and washed three times with TBS (Bio-Rad). […] After 24 h, cells were washed three times with TBS and incubated for 1 h with the following secondary antibody Alexa Fluor 546-conjugated goat anti-rabbit IgG (Invitrogen, 1∶1000). Finally, coverslips were mounted onto glass slides using Prolong Gold Antifade reagent with DAPI (Invitrogen). Cells were examined under laser confocal fluorescence microscope with plan-apochromate 40x and 63x/1.4 oil-immersion objective (LSM 510 Meta, Axiovert 200, Zeiss). Co-localization experiments were performed in triplicate, and data/images presented are the average of at least 10 random fields for each independent experiment.

COCC(=O)N1CCN(C(=O)C2CCC(Cn3c(=O)c4cc(OC)ccc4n(C)c3=O)CC2)CC1 (centres unmarked) [SEN461]
tubule-formation activity [1]: did not show any effect | CSNK1G mRNA ([2]; 10 µmol/L): down-modulation | DVL2 mRNA ([2]; 10 µmol/L): down-modulation | FZD4 mRNA ([2]; 10 µmol/L): down-modulation | AXIN2 mRNA ([2]; 10 µmol/L, 2 or 24 h): comparable down-regulation | CDC25A mRNA ([2]; 10 µmol/L, 2 or 24 h): comparable down-regulation | AXIN2 mRNA induced by Wnt3a CM ([2]; Wnt3a CM stimulation): inhibited | c-MYC mRNA ([2]; overnight treatment): unaffected | cellular motility (two-dimensional scratch assay) [3]: neither U2OS nor HT-1080 cells showed inhibition of motility | Axin1 protein level [4]: Axin1 stabilization | cytoplasmic β-catenin total level [4]: down-regulation of total level of cytoplasmic β-catenin | IC50 [5]: 780 nM | antitumor activity (tumor growth) [6]: tumor stasis effect | Axin protein level [7]: Axin stabilization | β-catenin level [7]: β-catenin down-modulation | body weight [8]: maintained their body weight with no significant changes | histology of gastrointestinal tract [8]: absence of gross histological changes | tankyrases (TNKS1 and TNKS2) protein level ([9]; only at the highest concentration): very slight stabilization | c-Myc protein level ([9]; overnight): No effect | Axin1 protein level ([9]; overnight, cytoplasmic lysates): concentration-dependent stabilization
